ChEMBL document CHEMBL1201862, “PubChem BioAssay data set” (2004)
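Dose response: 5 concentrations. Exposure: 48 h. Format: 96-well plates. Endpoint: linear interpolation; highest concentration if not reached. Here, GI50 denotes the concentration required for 50% inhibition of growth.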 Activity calls are given as the source filed them. No stated cut-off is given here; in the data, active = GI50 up to about 1.1 µM and inactive = higher.

Tests used:
Test in all cases: inhibition of tumour cell growth, NCI panel, 48 h
[1] = tested on: 786-0
[2] = tested on: CAKI-1
[3] = tested on: COLO 205
[4] = tested on: HCC 2998
[5] = tested on: HOP-62
[6] = tested on: IGROV-1
[7] = tested on: K562
[8] = tested on: KM12
[9] = tested on: MDA-MB-231
[10] = tested on: Malme-3M
[11] = tested on: OVCAR-3
[12] = tested on: OVCAR-8
[13] = tested on: SK-MEL-2
[14] = tested on: TK-10
[15] = tested on: U-251
[16] = tested on: HCT-15
[17] = tested on: NCI-H460
[18] = tested on: OVCAR-4
[19] = tested on: SF-539
[20] = tested on: SNB-19

SMILES | GI50 [1] | GI50 [2] | GI50 [3] | GI50 [4] | GI50 [5] | GI50 [6] | GI50 [7] | GI50 [8] | GI50 [9] | GI50 [10] | GI50 [11] | GI50 [12] | GI50 [13] | GI50 [14] | GI50 [15] | GI50 [16] [µM] | GI50 [17] | GI50 [18] | GI50 [19] | GI50 [20]
COc1ccc(-c2ncnc(-c3ccc(OC)c(OC)c3)n2)cc1OC | > 100 µM (inactive) | > 100 µM (inactive) | > 100 µM (inactive) | > 100 µM (inactive) | > 100 µM (inactive) | > 100 µM (inactive) | > 100 µM (inactive) | > 100 µM (inactive) | > 100 µM (inactive) | > 100 µM (inactive) | > 100 µM (inactive) | > 100 µM (inactive) | > 100 µM (inactive) | > 100 µM (inactive) | > 100 µM (inactive) |  |  |  |  | 
CN(C(=O)Cc1ccccc1)n1cn[n+](CC(=O)OC(C)(C)C)c1 | > 10 µM (inactive) | > 10 µM (inactive) | > 10 µM (inactive) | > 10 µM (inactive) | > 10 µM (inactive) | > 10 µM (inactive) | > 10 µM (inactive) | > 10 µM (inactive) | > 10 µM (inactive) | > 10 µM (inactive) | > 10 µM (inactive) | > 10 µM (inactive) |  | > 10 µM (inactive) | > 10 µM (inactive) | > 10 | > 10 µM (inactive) | > 10 µM (inactive) | > 10 µM (inactive) | > 10 µM (inactive)
CCCNC(=S)N/N=C/c1cccc(C)n1 | 26 µM (inactive) |  | 3.94 µM (inactive) | 19.5 µM (inactive) | 25.6 µM (inactive) | 42.7 µM (inactive) | 31.7 µM (inactive) | > 100 µM (inactive) | 33.7 µM (inactive) | 12.7 µM (inactive) | 2.91 µM (inactive) | 28 µM (inactive) | 1.09 µM (active) | 65.8 µM (inactive) | 21.9 µM (inactive) | 18.5 |  | 39.4 µM (inactive) | 25.2 µM (inactive) | 
Clc1cccc(/C=c2\nc(-c3ccccc3)n3c2nc2ccccc23)c1 | > 100 µM (inactive) | > 100 µM (inactive) | > 100 µM (inactive) |  | 71.3 µM (inactive) | > 100 µM (inactive) | > 100 µM (inactive) | > 100 µM (inactive) | 42.7 µM (inactive) | > 100 µM (inactive) | > 100 µM (inactive) | > 100 µM (inactive) | > 100 µM (inactive) | 87.1 µM (inactive) | 60.4 µM (inactive) | > 100 | > 100 µM (inactive) | > 100 µM (inactive) | 34.4 µM (inactive) | > 100 µM (inactive)
CC(C)N/C(=N\C#N)NS(=O)(=O)c1cnccc1Nc1ccc(Cl)cc1 | > 100 µM (inactive) | > 100 µM (inactive) | > 100 µM (inactive) | > 100 µM (inactive) | > 100 µM (inactive) | > 100 µM (inactive) | > 100 µM (inactive) | > 100 µM (inactive) | > 100 µM (inactive) | > 100 µM (inactive) | > 100 µM (inactive) | > 100 µM (inactive) | > 100 µM (inactive) | > 100 µM (inactive) | > 100 µM (inactive) | > 100 |  | > 100 µM (inactive) |  | > 100 µM (inactive)
Fc1ccccc1CN1COc2c(cc(Cl)c3cccnc23)C1 | 2.65 µM (inactive) | 1.65 µM (inactive) | 14.2 µM (inactive) |  | 1.16 µM (inactive) | 4.55 µM (inactive) | 1.3 µM (inactive) | 2.23 µM (inactive) | 0.422 µM (active) | 2.28 µM (inactive) | 3.75 µM (inactive) | 1.53 µM (inactive) | 3.93 µM (inactive) | 3.09 µM (inactive) | 1.56 µM (inactive) | 0.0165 | 0.533 µM (active) | 0.596 µM (active) | 1.22 µM (inactive) | 2.24 µM (inactive)
C=CC1(c2ccc3ccccc3c2)OCC(CC)(CC)CO1 | 20.2 µM (inactive) |  | 16.3 µM (inactive) | 20.9 µM (inactive) | 27.4 µM (inactive) | 21.9 µM (inactive) | 25.1 µM (inactive) | 20.8 µM (inactive) | 15.8 µM (inactive) | 28.2 µM (inactive) | 25.2 µM (inactive) | 48.3 µM (inactive) | 17.7 µM (inactive) | 37.5 µM (inactive) | 21.5 µM (inactive) | 17.9 | 22.1 µM (inactive) | 41 µM (inactive) | 14.3 µM (inactive) | 17.3 µM (inactive)
O=C(CCCN1CCC2(CC1)CC(=O)N(N1CCCCCC1)C2=O)c1ccc(F)cc1 | 20.8 µM (inactive) | 81.5 µM (inactive) | > 100 µM (inactive) |  | 35.1 µM (inactive) | > 100 µM (inactive) | 32.4 µM (inactive) |  | 82.6 µM (inactive) | 52.8 µM (inactive) | > 100 µM (inactive) | 18.5 µM (inactive) | > 100 µM (inactive) | > 100 µM (inactive) | > 100 µM (inactive) | > 100 |  | 40.6 µM (inactive) | > 100 µM (inactive) | 
N#Cc1c(N2CCN(c3ccc([N+](=O)[O-])cc3)CC2)[n+]([O-])c2ccc(-c3ccc([N+](=O)[O-])cc3)cc2[n+]1[O-] | > 47.8 µM (inactive) | 5.35 µM (inactive) | 17.9 µM (inactive) |  | 1.82 µM (inactive) | 1.69 µM (inactive) | 5.26 µM (inactive) | > 83.6 µM (inactive) | 22.5 µM (inactive) | > 42 µM (inactive) | > 19.8 µM (inactive) | 1.62 µM (inactive) | > 37.2 µM (inactive) | > 56.8 µM (inactive) | 1.25 µM (inactive) | > 85.5 | 2.5 µM (inactive) | > 31.2 µM (inactive) | 38.7 µM (inactive) | 9.18 µM (inactive)
CC(C)(C)c1cc(/C=C2/NC(=O)NC2=O)cc(C(C)(C)C)c1O | 15.6 µM (inactive) | 16.8 µM (inactive) | 14.4 µM (inactive) |  | 17.1 µM (inactive) | 16 µM (inactive) | 13.2 µM (inactive) | 13.2 µM (inactive) | 12.6 µM (inactive) | 19.5 µM (inactive) | 14.2 µM (inactive) | 16.3 µM (inactive) | 13.8 µM (inactive) | 16.4 µM (inactive) | 12.8 µM (inactive) | 13.2 | 14.5 µM (inactive) | 11.4 µM (inactive) | 17 µM (inactive) | 
COC(=O)C1=CO[C@@H](OC2OC(CO)C(O)C(O)C2O)[C@@H]2[C@H](C)[C@@H](O)[C@@H](O)[C@]12O (stereo partly drawn) | > 100 µM (inactive) | 13.4 µM (inactive) | > 100 µM (inactive) | > 100 µM (inactive) | > 100 µM (inactive) | > 100 µM (inactive) |  | > 100 µM (inactive) | 34.8 µM (inactive) | > 100 µM (inactive) | > 100 µM (inactive) | > 100 µM (inactive) | > 100 µM (inactive) | > 100 µM (inactive) | > 100 µM (inactive) | > 100 |  |  | > 100 µM (inactive) | > 100 µM (inactive)
COc1cccc(/C=N/C(/N=C/c2cccc(OC)c2O)c2cccc(OC)c2O)c1O | 23.3 µM (inactive) | 19.6 µM (inactive) | 32.1 µM (inactive) | 18.8 µM (inactive) | 29.4 µM (inactive) | 21.7 µM (inactive) | 24.7 µM (inactive) | 22.6 µM (inactive) | 25.1 µM (inactive) |  | 11.7 µM (inactive) | 12.6 µM (inactive) | 14.8 µM (inactive) | 15.7 µM (inactive) | 15.6 µM (inactive) | 7.5 | 21.7 µM (inactive) |  | 20.1 µM (inactive) | 22.6 µM (inactive)
CC(C)(C)C(=O)N(C(=S)OCc1ccccn1)c1ccccc1 | 35.8 µM (inactive) | 35.2 µM (inactive) | 21.8 µM (inactive) |  | 13.2 µM (inactive) | 19.9 µM (inactive) | 36.7 µM (inactive) | 26.4 µM (inactive) | 31 µM (inactive) | 13.8 µM (inactive) | 30.9 µM (inactive) | 31.6 µM (inactive) | 20.6 µM (inactive) | > 100 µM (inactive) | 42 µM (inactive) | 30.1 |  |  | 20.4 µM (inactive) | 59.6 µM (inactive)
Cc1ccc2ccc(=O)oc2c1 | > 100 µM (inactive) | > 100 µM (inactive) | > 100 µM (inactive) |  | > 100 µM (inactive) | > 100 µM (inactive) | > 100 µM (inactive) | > 100 µM (inactive) | > 100 µM (inactive) | > 100 µM (inactive) | > 100 µM (inactive) | > 100 µM (inactive) | > 100 µM (inactive) | > 100 µM (inactive) | > 100 µM (inactive) |  | > 100 µM (inactive) | > 100 µM (inactive) | > 100 µM (inactive) | 
COc1ccc(/C=C/C(=O)c2cc(CN(C)C)c(O)c(CN(C)C)c2)cc1 | 74 µM (inactive) | 47.5 µM (inactive) | 18.4 µM (inactive) | > 10 µM (inactive) | 21.8 µM (inactive) | 37 µM (inactive) | 26.7 µM (inactive) | 17.7 µM (inactive) | 23.2 µM (inactive) | 25.2 µM (inactive) | 18 µM (inactive) | 29.8 µM (inactive) |  | 40.6 µM (inactive) | 48.1 µM (inactive) | 40 | 18.7 µM (inactive) |  | 45.3 µM (inactive) | 29.9 µM (inactive)
NCc1ccc(C(=O)O)cc1 [AMINOMETHYLBENZOIC ACID] | > 100 µM (inactive) | > 100 µM (inactive) |  | > 100 µM (inactive) | > 100 µM (inactive) | > 100 µM (inactive) | > 100 µM (inactive) | > 100 µM (inactive) | > 100 µM (inactive) | > 100 µM (inactive) | > 100 µM (inactive) | > 100 µM (inactive) |  | > 100 µM (inactive) | > 100 µM (inactive) | > 100 | > 100 µM (inactive) | > 100 µM (inactive) |  | > 100 µM (inactive)
